Results taken from patent publication EP0842933B1, “NOVEL NAPHTHYRIDINE DERIVATIVES” (SUMITOMO PHARMACEUTICALS COMPANY, LIMITED, priority 1995, dated 1996).

Tests used:
ACAT [1] = assay: Assay of ACAT inhibitory activity in a specimen prepared from rabbit liver; assay type: biochemical, New Zealand white rabbit; details: enzyme specimen from liver of cholesterol-fed rabbit, [1-^14C]oleoyl-CoA and endogenous cholesterol
Protocol: 1. Assay of ACAT inhibitory activity in a specimen prepared from rabbit liver
An enzyme specimen ACAT was prepared according to the method disclosed in the literature: J. Lipid. Research, 30, 681-690, 1989, from the liver of New Zealand white rabbit which had been fed with 1 % cholesterol feed for one month. The ACAT activity was determined according to the method disclosed in the literature: J. Lipid Research. 24, 1127-1134, 1983, i.e., using radioactive [1-^14C]oleoyl-CoA and endogenous cholesterol contained in the liver microsome, and calculated from the radioactivity of the labeled cholesterol oleate.

ACAT [2] = molecular target: T1, ACAT (Rattus norvegicus, UniProt O70536); assay: Assay of ACAT inhibitory activity in the macrophage derived from rat peritoneal; assay type: cell-based; details: 10^-6 M, radioactive oleic acid and exogenous cholesterol in liposome, read-out: ACAT inhibitory rate (%) 10^-6 M
T1 construct: endogenous in cells; host or cells: rat peritoneal macrophages (primary cells)
T1 sequence (O70536 1-545): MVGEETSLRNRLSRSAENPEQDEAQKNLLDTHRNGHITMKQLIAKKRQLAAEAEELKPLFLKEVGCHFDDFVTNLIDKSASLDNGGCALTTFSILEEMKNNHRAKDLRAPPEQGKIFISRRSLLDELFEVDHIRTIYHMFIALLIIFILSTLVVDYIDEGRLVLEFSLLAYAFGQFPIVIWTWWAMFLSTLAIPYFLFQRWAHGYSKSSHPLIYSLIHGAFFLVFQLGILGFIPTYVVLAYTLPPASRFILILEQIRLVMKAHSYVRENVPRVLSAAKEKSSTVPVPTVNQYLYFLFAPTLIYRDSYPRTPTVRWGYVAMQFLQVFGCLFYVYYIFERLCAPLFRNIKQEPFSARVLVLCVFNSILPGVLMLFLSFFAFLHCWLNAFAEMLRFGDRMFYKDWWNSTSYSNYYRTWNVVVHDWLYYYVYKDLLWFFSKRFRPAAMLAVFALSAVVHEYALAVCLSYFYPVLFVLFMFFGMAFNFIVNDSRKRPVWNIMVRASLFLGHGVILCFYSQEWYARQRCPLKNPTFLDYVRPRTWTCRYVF
Protocol: 2. Assay of ACAT inhibitory activity in the macrophage derived from rat peritoneal
The rat peritoneal-derived macrophage was prepared according to the method disclosed in the literature: Biochimica et Biophysica Acta, 1126, 73-80, 1992. The ACAT activity was determined by a modified method of the method disclosed in the above literature: Biochimica et Biophysica Acta, 1126, 73-80, 1992, i.e., using radioactive [9,10-H]oleic acid and exogenous cholesterol contained in the liposome which was re-constituted according to the method disclosed in the literature: Biochimica Biophysica Acta, 1213, 127-134, 1994, and calculated from the labeled cholesterolyl oleate.

`CC(C)c1cccc(C(C)C)c1NC(=O)Nc1c(-c2ccccc2Cl)c2cccnc2n(C)c1=O` [Example 4, N-[1-methyl-4-(2-chlorophenyl)-1,2-dihydro-2-oxo-1,8-naphthyridin-3-yl]-N'-(2,6-diisopropylphenyl)urea] was tested, and the “ACAT inhibitory rate (%) 10^-6 M” value (ACAT [1]) was 87% and the inhibition at 1 µM (ACAT [2]) was 88%.
`CC(C)c1cccc(C(C)C)c1NC(=O)Nc1c(-c2ccccc2Cl)c2ccncc2n(C)c1=O` [Example 6, N-[1-methyl-4-(2-chlorophenyl)-1,2-dihydro-2-oxo-1,7-naphthyridin-3-yl]-N'-(2,6-diisopropylphenyl)urea] was tested, and the “ACAT inhibitory rate (%) 10^-6 M” value (ACAT [1]) was 82%.
`COc1cccc(-c2c(NC(=O)Nc3c(C(C)C)cccc3C(C)C)c(=O)n(C)c3ncccc23)c1` [Example 7, N-[1-methyl-4-(3-methoxyphenyl)-1,2-dihydro-2-oxo-1,8-naphthyridin-3-yl]-N'-(2,6-diisopropylphenyl)urea] was tested, and the inhibition at 1 µM (ACAT [2]) was 94%.
